For data set [1], the system named is Vanrija humicola. Briefly: Antifungal activity against Cryptococcus humicola ATCC 9949 assessed as fungal growth inhibition by broth microdilution method. The format is functional. A general note: Dilution methods test growth across graded concentrations, often in twofold steps.
The subject of data set [2] is Aspergillus niger. Put plainly: Antifungal activity against Aspergillus niger ATCC 16404 assessed as fungal growth inhibition by broth microdilution method. The class given is functional.
Data set [3] relates to Candida albicans. Put plainly: Antifungal activity against Candida albicans ATCC 14053 assessed as fungal growth inhibition by broth microdilution method. The class given is functional.
Data set [4] relates to Fusarium oxysporum. Briefly: Antifungal activity against Fusarium oxysporum VKM F-140 assessed as fungal growth inhibition by broth microdilution method. The class given is functional.
Data set [5] deals with Pseudomonas aeruginosa. Briefly: Antibacterial activity against Pseudomonas aeruginosa assessed as bacterial growth inhibition by broth microdilution method. The format is functional.
Data set [6] concerns Escherichia coli. Briefly: Antibacterial activity against Escherichia coli assessed as bacterial growth inhibition. The class given is functional.
The test system of data set [7] is Mycobacterium tuberculosis. Put plainly: Antibacterial activity against Mycobacterium tuberculosis assessed as bacterial growth inhibition. The format is functional.
In data set [8] the test system is Verticillium dahliae. Put plainly: Antifungal activity against Verticillium dahliae assessed as fungal growth inhibition at 50 ug incubated for 96 hrs by disk diffusion method. The format is functional. To be noted: read-out: IZ. Background: In agar diffusion tests the substance spreads into inoculated agar from a disc or well.
For data set [9], the system named is Aspergillus niger. Briefly: Antifungal activity against Aspergillus niger assessed as fungal growth inhibition at 50 ug incubated for 96 hrs by disk diffusion method. The format is functional. To be noted: read-out: IZ.
Data set [10] has as its system Mycolicibacterium smegmatis. Put plainly: Antibacterial activity against Mycobacterium smegmatis assessed as bacterial growth inhibition. The class given is functional.
For data set [11], the system named is A549. Briefly: Cytotoxicity against human A549 cells assessed as cell growth inhibition. The format is functional.
The subject of data set [12] is Mycobacterium tuberculosis. Put plainly: Antibacterial activity against Mycobacterium tuberculosis H37Rv ATCC 27294 assessed as bacterial growth inhibition by radiometry method. The format is functional.
Data set [13] deals with L5178Y. Briefly: Anticancer activity against mouse L5178Y cells assessed as cell growth inhibition incubated for 24 hrs by MTT assay. The class given is functional, cell-based.
The subject of data set [14] is MDA-MB-231. Briefly: Anticancer activity against human MDA-MB-231 cells assessed as cell growth inhibition incubated for 72 hrs by MTT assay. As to conditions: MDA-MB-231, 72 h. The class given is functional, cell-based.
For data set [15], the system named is MIA PaCa-2. Briefly: Anticancer activity against human MIA PaCa-2 cells assessed as cell growth inhibition incubated for 72 hrs by MTT assay. The class given is functional, cell-based. As to conditions: MIA PaCa-2, 72 h. (Tetrazolium assays rely on reduction of a dye to a coloured formazan, in cell work by metabolically active cells.)
The subject of data set [16] is Candida albicans. Briefly: Antifungal activity against Candida albicans assessed as fungal growth inhibition at 25 ug incubated for 48 hrs by disk diffusion method. As to conditions: read-out: IZ. The class given is functional.
The subject of data set [17] is Mycolicibacterium smegmatis. Put plainly: Antibacterial activity against Mycobacterium smegmatis ATCC 700084 assessed as bacterial growth inhibition incubated for 72 hrs by broth microdilution method. The format is functional.
The test system of data set [18] is Escherichia coli. Put plainly: Antibacterial activity against Escherichia coli ATCC 25922 assessed as bacterial growth inhibition incubated for 72 hrs by broth microdilution method. The format is functional.
Data set [19] concerns Aspergillus niger. Put plainly: Antifungal activity against Aspergillus niger assessed as fungal growth inhibition at 25 ug incubated for 48 hrs by disk diffusion method. The format is functional. As to conditions: read-out: IZ.
The subject of data set [20] is Bacillus cereus. Briefly: Antibacterial activity against Bacillus cereus assessed as bacterial growth inhibition at 100 ug incubated for 48 hrs by disk diffusion method. The format is functional. As to conditions: read-out: IZ.
Data set [21] deals with Streptococcus mutans. Put plainly: Antibiofilm activity against Streptococcus mutans ATCC 27351 assessed as bacterial viability at 0.2 uM by SYTO/PI staining based inverted microscopy relative to control. The class given is functional.
Data set [22] concerns Staphylococcus aureus. Put plainly: Antibacterial activity against Staphylococcus aureus ATCC 43300 assessed as bacterial growth inhibition incubated for 1 hr by plate colony counting method. The class given is functional.
For data set [23], the system named is Aspergillus niger. Briefly: Antifungal activity against Aspergillus niger ATCC 20408 assessed as fungal growth inhibition by plate colony counting method. The class given is functional.
The nature of data set [24]: Lipophilicity, log P of the compound. The class given is physicochemical. To be noted: octanol/water.
The subject of data set [25] is Prototheca zopfii. Put plainly: Antimicrobial activity against Prototheca zopfii assessed as microbial growth inhibition by CLSI protocol based assay. The class given is functional.
The subject of data set [26] is Klebsiella pneumoniae. Put plainly: Antibacterial activity against Klebsiella pneumoniae assessed as bacterial growth inhibition. The class given is functional.
Data set [27] relates to Aspergillus niger. Put plainly: Antifungal activity against Aspergillus niger assessed as fungal growth inhibition incubated for 48 hrs by agar diffusion method. The format is functional. To be noted: Aspergillus niger.
Data set [28] in a line: Cmax in rat at 25 mg/kg, po. The format is ADME, organism-based. Further details: dose 25 mg/kg, route po. To be noted: in vivo.
Data set [29] can be described thus: AUC (0 to 24 hrs) in rat at 25 mg/kg, po. The format is ADME, organism-based. On the set-up: time < 24 hr, dose 25 mg/kg, route po. To be noted: in vivo.
Data set [30] relates to Mycobacterium tuberculosis. Put plainly: Antibacterial activity against Mycobacterium tuberculosis H37Rv ATCC 25618 assessed as bacterial growth inhibition incubated for 5 days by fluorescence based assay. The class given is functional, organism-based. To be noted: H37Rv ATCC 25618, 120 h.
Data set [31] deals with HepG2. Briefly: Cytotoxicity against human HepG2 cells assessed as cell growth inhibition incubated for 72 hrs by Cell Titer Glo assay. The class given is functional, cell-based. As to conditions: HepG2, 72 h.

Each structure is given as a SMILES string. pIC50: −log10 of the molar value. Values after ≈ are worked out from the molar mass of the structure shown.

On to `C[C@@H]1[C@H](O)[C@@H](C)/C=C/C=C/C=C/C=C/C=C/C=C/C=C/[C@H](O[C@@H]2O[C@H](C)[C@@H](O)[C@H](NS(=O)(=O)c3ccc4c(c3)OB(O)C4)[C@@H]2O)C[C@@H]2O[C@](O)(C[C@@H](O)C[C@@H](O)[C@H](O)CC[C@@H](O)C[C@@H](O)CC(=O)O[C@H]1C)C[C@H](O)[C@H]2C(=O)O`, for which the MIC in data set [1], in data set [2], in data set [3] and in [4] was 0.25 mg/L (≈ 0.223 µM) throughout. With `Clc1ccc(-c2noc3c2COB(c2ccc(Br)cc2)OC3)cc1`, the MIC (usually the lowest concentration that inhibits growth of the organism) in data set [5] was 25 mg/L (≈ 61.8 µM). Regarding `CC1=NN2B(OB3c4ccccc4C(C)=NN3C2=O)c2ccccc21`, the MIC in data set [6] was found to be 32 mg/L (≈ 97.6 µM).

As to `Cc1ccc2c(c1-c1ccccc1C(N)=O)B(O)OC2`, in [7], the IC90 – broadly, the concentration needed for an effect of 90% – turned out to be 1.8 µM. `COc1ccc2c(c1)C=NN(C(N)=S)B2O`: the values for the zone of inhibition at 50 µg/disc in data set [8] and in [9] were 6.4 mm and 2.3 mm, respectively. In the case of `O=C(NCCOCCOCCNC(=O)c1ccc2c(c1)B(O)OC2)c1ccc2c(c1)COB2O`, in [10], the MIC stood at 0.78 µM. In data set [11], the MIC99 was above 10 µM. Turning to `OB1c2ccccc2NC(=S)N1c1ccccc1`, the MIC in data set [12] stood at 8 mg/L (≈ 31.5 µM). In the case of `O=C1C[NH2+][B-](c2ccccc2)(c2ccccc2)O1`, in data set [13], the pIC50 (as a rule, the IC50 on a negative log10 scale, so that one unit is a factor of ten) is 4.65.

Consider `O=C(c1ccncc1)N1N=Cc2ccccc2B1OB1c2ccccc2C=NN1C(=O)c1ccncc1`, for which the MIC was 4 mg/L (≈ 8.26 µM) in [6] and 32 mg/L in [10].

With `OB1OCc2ccc(NCc3cc4ccccc4cc3Cl)cc21`, the pIC50 in data set [14] is 4.92; in [15], 5.57. With `O=C(NCCNC(=O)c1ccc2c(c1)B(O)OC2)c1ccc2c(c1)B(O)OC2`, in data set [10], the MIC came out at 0.78 µM. The MIC99 in [11] was above 5 µM.

Turning to `NC(=S)N1N=Cc2ccccc2B1O`, the zone of inhibition at 50 µg/disc in [8] came to 3.7 mm; in [9], 3.1 mm. Further, the zone of inhibition at 25 µg/disc was determined as 6 mm in data set [16] and 7 mm in data set [19]. In addition, the MIC in data set [17] worked out at 4 mg/L (≈ 19.5 µM); in [18] it was 16 mg/L (≈ 78 µM). Regarding `CCNC(=S)N1N=Cc2c(F)cccc2B1O`, the zone of inhibition at 100 µg/disc in [20] was determined as 3.4 mm. Take `CCCCB1NC(C)(C)CO1`: in data set [21], the Activity is listed as 40%.

Consider `Cc1cccc(N2B(c3cccc([N+](=O)[O-])c3)ON=C2c2ccccc2)c1`, for which the MIC in data set [22] was determined as 0.06 µM (≈ 0.0214 µg/mL).

In the case of `Brc1cccc(B2NC(c3ccccc3)=NO2)c1`, the MIC in data set [23] stood at 0.08 µM (≈ 0.0241 µg/mL).

On to `CN1C(=O)C2(Cc3ccccc3B(O)O2)c2ccccc21` (centres undefined), for which the logP (commonly a log measure of how a compound divides between an organic and an aqueous phase) in [24] came to 3.52. For the compound `O=[N+]([O-])c1ccc([N+]2=C(c3ccccc3)C=C(C(Cl)(Cl)Cl)O[B-]2(F)F)cc1`, in data set [25], the MIC came out at 0.3 mg/L (≈ 0.692 µM). For the compound `Cc1ccc(S(=O)(=O)N2N=Cc3ccccc3B2O)cc1`, the values for the MIC in data set [6] and in data set [26] were 25 mg/L (≈ 83.3 µM) and 3.1 mg/L (≈ 10.3 µM), respectively. `OB1OCc2cc(F)ccc21` [TAVABOROLE]: in [27], the MIC is 2 mg/L (≈ 13.2 µM).

As for `CC1(C)OB(O)c2cc(NC(=O)c3ccc(F)cc3C(F)(F)F)ccc21` [ACOZIBOROLE], the Cmax (commonly the peak of the concentration-time curve) in data set [28] was above 10 µg/mL. Moreover, the AUC(0-t) (as a rule, the area under the concentration-time curve up to a stated or last time point) at 24 h in data set [29] is above 100 µg·h/mL. For the compound `Clc1cccc(B2NC(c3ccccc3)=NO2)c1`, the MIC in data set [23] stood at 0.09 µM (≈ 0.0231 µg/mL). Turning to `CS(=O)(=O)N1N=Cc2ccc(Oc3ccc(C(F)(F)F)cc3/C=N/O)cc2B1O`, the pIC50 is 6.96 in data set [30] and below 4.00 in [31].

The record behind these values is ChEMBL document CHEMBL5104111, “Boron-Containing heterocycles as promising pharmacological agents” (Bioorg Med Chem, 2022).
